# Measurements published in PubChem BioAssay (NCI).
#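 96-well plates; 48 h exposure; 5 concentrations. Endpoints by linear interpolation between flanking doses. Not reached: highest tested concentration assigned. At the TGI there is no net growth.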
# What was measured:
# Assay in all cases: growth of human tumour cells (NCI), 48 h
# [1] = tested on: HL-60(TB) leukemia
# [2] = tested on: NCI-H460 lung
# [3] = tested on: TK-10 renal
# [4] = tested on: SK-MEL-2 melanoma
# [5] = tested on: MCF7 breast
# [6] = tested on: MOLT-4 leukemia
# [7] = tested on: OVCAR-5 ovarian
# [8] = tested on: OVCAR-4 ovarian
# [9] = tested on: MALME-3M melanoma
# [10] = tested on: RXF 393 renal
# [11] = tested on: UACC-257 melanoma
# [12] = tested on: SF-295 CNS
# [13] = tested on: HCC-2998 colon
# [14] = tested on: OVCAR-3 ovarian
# [15] = tested on: A498 renal
# [16] = tested on: OVCAR-8 ovarian
# [17] = tested on: PC-3 prostate
# [18] = tested on: SNB-19 CNS
# [19] = tested on: NCI-H522 lung
# [20] = tested on: NCI/ADR-RES ovarian
# [21] = tested on: SW-620 colon
# [22] = tested on: SN12C renal
# [23] = tested on: T-47D breast
# [24] = tested on: NCI-H23 lung
# [25] = tested on: HCT-116 colon
# [26] = tested on: KM12 colon
# [27] = tested on: A549 NSCLC
# [28] = tested on: HOP-92 NSCLC
# [29] = tested on: UO-31 renal
# [30] = tested on: K-562 leukemia
# [31] = tested on: CCRF-CEM leukemia
# [32] = tested on: HCT-15 colon
# [33] = tested on: HT29 colon
# [34] = tested on: 786-0 renal
# [35] = tested on: EKVX NSCLC
# [36] = tested on: M14 melanoma
# [37] = tested on: RPMI-8226 leukemia
# [38] = tested on: SNB-75 CNS
# [39] = tested on: LOX IMVI melanoma
# [40] = tested on: HS 578T breast
# [41] = tested on: DU-145 prostate
# [42] = tested on: MDA-MB-435
# [43] = tested on: SK-MEL-28 melanoma
# [44] = tested on: HOP-62 NSCLC
# [45] = tested on: ACHN renal
# [46] = tested on: SK-MEL-5 melanoma
# [47] = tested on: BT-549 breast
# [48] = tested on: U251 CNS
# [49] = tested on: SF-539 CNS
# [50] = tested on: SK-OV-3 ovarian
# [51] = tested on: SF-268 CNS
# [52] = tested on: COLO 205 colon
# [53] = tested on: CAKI-1 renal
# [54] = tested on: NCI-H226 lung
# [55] = tested on: UACC-62 melanoma
# [56] = tested on: MDA-MB-231 breast
# [57] = tested on: IGROV1 ovarian
compound,measurement,setting,value
COc1cc(Nc2c(C#N)[n+]([O-])c3ccccc3[n+]2[O-])cc(OC)c1OC,TGI,[1],> 100 µM
same,TGI,[2],> 100 µM
same,TGI,[3],> 100 µM
same,TGI,[4],> 100 µM
same,TGI,[5],59 µM
same,TGI,[6],> 100 µM
same,TGI,[7],54.7 µM
same,TGI,[8],> 100 µM
same,TGI,[9],> 100 µM
same,TGI,[10],> 100 µM
same,TGI,[11],67.2 µM
same,TGI,[12],> 100 µM
same,TGI,[13],86 µM
same,TGI,[14],> 100 µM
same,TGI,[15],> 100 µM
same,TGI,[16],> 100 µM
same,TGI,[17],> 100 µM
same,TGI,[18],> 100 µM
same,TGI,[19],> 100 µM
same,TGI,[20],51 µM
same,TGI,[21],> 100 µM
same,TGI,[22],> 100 µM
same,TGI,[23],48.2 µM
same,TGI,[24],38.2 µM
same,TGI,[25],29.9 µM
same,TGI,[26],> 100 µM
same,TGI,[27],> 100 µM
same,TGI,[28],> 100 µM
same,TGI,[29],> 100 µM
same,TGI,[30],> 100 µM
same,TGI,[31],> 100 µM
same,TGI,[32],> 100 µM
same,TGI,[33],> 100 µM
same,TGI,[34],49.8 µM
same,TGI,[35],> 100 µM
same,TGI,[36],36 µM
same,TGI,[37],> 100 µM
same,TGI,[38],> 100 µM
same,TGI,[39],> 100 µM
same,TGI,[40],> 100 µM
same,TGI,[41],> 100 µM
same,TGI,[42],> 100 µM
same,TGI,[43],> 100 µM
same,TGI,[44],> 100 µM
same,TGI,[45],> 100 µM
same,TGI,[46],54.1 µM
same,TGI,[47],> 100 µM
same,TGI,[48],> 100 µM
same,TGI,[49],> 100 µM
same,TGI,[50],67.4 µM
same,TGI,[51],> 100 µM
same,TGI,[52],28.7 µM
same,TGI,[53],> 100 µM
Cc1cc(C(=O)CBr)c(CN2C(=O)c3ccccc3C2=O)c(=O)n1C,TGI,[1],25 µM
same,TGI,[2],76.6 µM
same,TGI,[3],25.3 µM
same,TGI,[4],61.7 µM
same,TGI,[5],56 µM
same,TGI,[6],5.57 µM
same,TGI,[7],52.6 µM
same,TGI,[54],> 100 µM
same,TGI,[8],> 100 µM
same,TGI,[9],36.8 µM
same,TGI,[10],33.7 µM
same,TGI,[11],33.5 µM
same,TGI,[12],> 100 µM
same,TGI,[55],34.7 µM
same,TGI,[13],59.7 µM
same,TGI,[14],40.9 µM
same,TGI,[16],41.1 µM
same,TGI,[17],35.5 µM
same,TGI,[18],93.2 µM
same,TGI,[19],37.4 µM
same,TGI,[20],> 100 µM
same,TGI,[21],23 µM
same,TGI,[22],36 µM
same,TGI,[23],74.4 µM
same,TGI,[24],> 100 µM
same,TGI,[25],> 100 µM
same,TGI,[26],40.1 µM
same,TGI,[27],44.7 µM
same,TGI,[29],41.6 µM
same,TGI,[30],20.6 µM
same,TGI,[31],6.25 µM
same,TGI,[32],34.9 µM
same,TGI,[33],> 100 µM
same,TGI,[56],40.2 µM
same,TGI,[34],> 100 µM
same,TGI,[35],14.5 µM
same,TGI,[36],> 100 µM
same,TGI,[38],56.5 µM
same,TGI,[39],99.3 µM
same,TGI,[40],45.6 µM
same,TGI,[41],30.5 µM
same,TGI,[42],43.6 µM
same,TGI,[43],42.7 µM
same,TGI,[44],> 100 µM
same,TGI,[45],25.6 µM
same,TGI,[47],32.7 µM
same,TGI,[48],38 µM
same,TGI,[49],34.3 µM
same,TGI,[50],> 100 µM
same,TGI,[51],54.9 µM
same,TGI,[52],47.9 µM
same,TGI,[53],47.8 µM
same,TGI,[57],64.2 µM
